The source of these data is paper PMC11784839, “Monoaminergic neurotransmitters are bimodal effectors of tau aggregation” (Science Advances, 2025).

This assay has as its target tau (Homo sapiens, UniProt P10636). As to the kind of experiment: MCE Phenols Library screening, tau biosensor cell seeding assay (AvZ). It counts as cell-based. To be noted: for AvZ (average z score of seeding, SDs from the mean level of seeding): 10 μM phenol in cell cultures, AD brain homogenate preincubated 16 hours, two biological replicates, positive = catalyzes seeding, negative = inhibits; for Z repl 1 / Z Repl 2: Z score; for Z repl 1 / raw data 1: replicate 1; for Z Repl 2 / raw data 2: replicate 2.

[1] abbreviates: average puncta of the two replicates.
The mark [2] stands for this setting: average Z score of the two replicates, MCE Phenols Library screen.
[3] abbreviates: average Z score of the two replicates, tau seeding.
Setting [4] is: average Z score of two replicates, Phenols Library screen.

Sequence of tau (P10636 623-695 limits assumed): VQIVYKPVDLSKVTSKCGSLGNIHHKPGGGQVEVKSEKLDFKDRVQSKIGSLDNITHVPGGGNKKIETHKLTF

Turning to `COc1ccccc1O` [Guaiacol], the “AvZ (average z score of seeding, SDs from the mean level of seeding)” value (shortened to “AvZ”) was -0.653; the “Z repl 1” value was -0.724; the “Z Repl 2” value is -0.582. This compound returned an av puncta under setting [1] of 12102.3. In addition, under “puncta”, the “raw data 1” value was 17657.8 and the “raw data 2” value was 6546.75.
For the compound `O=c1c(O[C@@H]2OC[C@H](O)[C@H](O)[C@H]2O)c(-c2ccc(O)c(O)c2)oc2cc(O)cc(O)c12` [Guaijaverin], the “Z repl 1” value is on record as -0.067 and the “Z Repl 2” value is recorded as -0.383. In addition, the “av Z” value under setting [2] is listed as -0.225. The compound also yielded an av puncta under setting [1] of 17108.5. For the setting “raw puncta”, the “raw data 1” value was determined as 25544.8 and the “raw data 2” value was 8672.24.
As to `Oc1cc2c(cc1O)[C@@H]1c3ccc(O)c(O)c3OC[C@]1(O)C2` [Hematoxylin], the “Z repl 1” value was -1.7 and the “Z Repl 2” value was -0.865. Also, under setting [2], the “av Z” value is recorded as -1.283. Under “average of raw data 1 and 2”, this compound gave an av puncta of 4731.6. Further, under “puncta”, the “raw data 1” value is on record as 5936.96 and the “raw data 2” value is 3526.25.
Turning to `O=c1c(O)c(-c2ccc(O)cc2)oc2c(O)c(O)cc(O)c12` [Herbacetin], the “AvZ” value was -1.63; the “Z repl 1” value is recorded as -2.129; the “Z Repl 2” value was -1.129. The “av Z” value under setting [2] is recorded as -1.629. This compound also gave an av puncta (average of raw data 1 and 2) of 747.252. Moreover, for the setting “puncta”, the “raw data 1” value stood at 787.042 and the “raw data 2” value is on record as 707.463.
As for `Cl.Oc1ccc(CC2NCCc3cc(O)c(O)cc32)cc1` (stereo not drawn) [Higenamine (hydrochloride)], the “Z repl 1” value is -0.238 and the “Z Repl 2” value is recorded as -1.059. In addition, under setting [2], the “av Z” value is on record as -0.649. Under setting [1], this compound yielded an av puncta of 12469.5. Moreover, for the setting “puncta”, the “raw data 1” value is 23487.2 and the “raw data 2” value amounted to 1451.73.
As to `O=c1cc(O)cc(/C=C/c2ccc(O)c(O)c2)o1` [Hispidin], the “Z repl 1” value amounted to 0.687 and the “Z Repl 2” value is -0.112. In addition, the “av Z” value under setting [3] is given as 0.287. In addition, for the setting “average of raw data 1 and 2”, the av puncta was found to be 23081.7. For the same compound, for the setting “puncta”, the “raw data 1” value is reported as 34594.7 and the “raw data 2” value was 11568.8.
Regarding `COc1cc(CNC(=O)CCCCCCCC(C)C)ccc1O` [Homodihydrocapsaicin I], the “AvZ” value is on record as -0.169; the “Z repl 1” value is -0.665; the “Z Repl 2” value is 0.327. In addition, the av puncta (average of raw data 1 and 2) turned out to be 17309.6. Where the note is “puncta”, the “raw data 1” value is reported as 18361.4 and the “raw data 2” value is listed as 16257.8.
`O=C(O)Cc1cc(O)ccc1O` [Homogentisic acid]: the “AvZ” value was -1.185; the “Z repl 1” value was -1.286; the “Z Repl 2” value is reported as -1.085. Under “average of raw data 1 and 2”, this compound registered an av puncta of 6046.8. For the same compound, for the setting “puncta”, the “raw data 1” value is on record as 10913.7 and the “raw data 2” value is on record as 1179.87.
Regarding `COc1c(O[C@@H]2O[C@H](CO)[C@@H](O)[C@H](O)[C@H]2O)cc2oc(-c3ccc(O)cc3)cc(=O)c2c1O` [Homoplantaginin], the “Z repl 1” value was -0.079 and the “Z Repl 2” value is reported as -0.247. Also, under setting [4], the “av Z” value is on record as -0.163. The compound also gave an av puncta (average of raw data 1 and 2) of 17765.2. In addition, under “puncta”, the “raw data 1” value turned out to be 25406.2 and the “raw data 2” value was determined as 10124.2.
With `COc1cc(CCO)ccc1O` [Homovanillyl alcohol], the “AvZ” value was -0.068; the “Z repl 1” value is listed as -0.272; the “Z Repl 2” value was 0.136. Besides, for the setting “average of raw data 1 and 2”, the av puncta came to 18647.3. Moreover, under “puncta”, the “raw data 1” value is reported as 23079.4 and the “raw data 2” value amounted to 14215.2.
Turning to `COc1cc(O)c2c(=O)cc(-c3ccc(O)c(O)c3)oc2c1` [Hydroxygenkwanin], the “Z repl 1” value is reported as -0.407 and the “Z Repl 2” value is on record as -0.493. The “av Z” value under setting [2] is -0.45. For the same compound, the av puncta under setting [1] is 14482.9. Also, under “raw puncta”, the “raw data 1” value is 21459.9 and the “raw data 2” value was 7505.79.
In the case of `O=C(O)C(O)Cc1ccc(O)cc1` (stereo not drawn) [Hydroxyphenyllactic acid], the “AvZ” value was 0.039; the “Z repl 1” value is given as -0.248; the “Z Repl 2” value is given as 0.325. Further, the av puncta (average of raw data 1 and 2) worked out at 19806.4. Further, where the note is “puncta”, the “raw data 1” value is listed as 23372.2 and the “raw data 2” value was 16240.5.
In the case of `O=C(/C=C/c1ccc(O)cc1)C1=C(O)C(O)([C@@H]2O[C@H](CO)[C@@H](O)[C@H](O)[C@H]2O)C(O)=C([C@@H]2O[C@H](CO)[C@@H](O)[C@H](O)[C@H]2O)C1=O` (stereo partly drawn) [Hydroxysafflor yellow A], the “Z repl 1” value is -0.826 and the “Z Repl 2” value was -0.428. Moreover, under setting [2], the “av Z” value is given as -0.627. Under setting [1], the av puncta is 12310.1. Besides, under “puncta”, the “raw data 1” value was 16428.1 and the “raw data 2” value is listed as 8192.15.
Take `CC(=O)OCCc1ccc(O)c(O)c1` [Hydroxytyrosol acetate]: the “Z repl 1” value is listed as -0.003 and the “Z Repl 2” value was -1.049. The same compound displayed an av puncta under setting [1] of 13936.9. For the setting “puncta”, the “raw data 1” value is given as 26308.5 and the “raw data 2” value was determined as 1565.31.
For `OCCc1ccc(O)c(O)c1` [Hydroxytyrosol], the “AvZ” value is -0.34; the “Z repl 1” value is on record as -0.11; the “Z Repl 2” value is reported as -0.571. The compound further came in with an av puncta under setting [1] of 15851.9. Besides, for the setting “raw puncta”, the “raw data 1” value was determined as 25031.1 and the “raw data 2” value is recorded as 6672.58.
On to `Cc1cc(O)c2c(=O)c3c(O)cc(O)c4c5c(O)cc(O)c6c(=O)c7c(O)cc(C)c8c1c2c(c34)c(c78)c65` [Hypericin], for which the “Z repl 1” value is given as -1.344 and the “Z Repl 2” value was -0.424. Moreover, the “av Z” value under setting [2] is given as -0.884. The same compound yielded an av puncta (average of raw data 1 and 2) of 9227.43. Where the note is “puncta”, the “raw data 1” value is 10216.3 and the “raw data 2” value came to 8238.56.
Take `O=c1c(O[C@@H]2O[C@H](CO)[C@H](O)[C@H](O)[C@H]2O)c(-c2ccc(O)c(O)c2)oc2cc(O)cc(O)c12` [Hyperoside]: the “Z repl 1” value was -0.253 and the “Z Repl 2” value was -0.241. The “av Z” value under setting [2] was -0.247. For the same compound, the av puncta under setting [1] is on record as 16752.5. In addition, under “raw puncta”, the “raw data 1” value is 23311.4 and the “raw data 2” value is listed as 10193.6.
Take `COc1c2c3c4c(c(OC)c(=O)c5c(O)cc(OC)c(c6c(OC)cc(O)c(c1=O)c63)c54)[C@@H](C(C)=O)[C@@](C)(O)C2` [Hypocrellin A]: the “Z repl 1” value was -1.761 and the “Z Repl 2” value is on record as -1.119. For the same compound, the “av Z” value under setting [2] is recorded as -1.44. This compound also came in with an av puncta (average of raw data 1 and 2) of 3011.52. In addition, where the note is “puncta”, the “raw data 1” value is reported as 5209.06 and the “raw data 2” value was determined as 813.974.
With `COc1ccc(-c2oc3c(CC=C(C)C)c(O[C@@H]4O[C@H](CO)[C@@H](O)[C@H](O)[C@H]4O)cc(O)c3c(=O)c2O[C@@H]2O[C@@H](C)[C@H](O)[C@@H](O)[C@H]2O)cc1` [Icariin], the “Z repl 1” value came out at 0.381 and the “Z Repl 2” value is listed as 0.569. Further, the “av Z” value under setting [3] is given as 0.475. Further, the av puncta (average of raw data 1 and 2) was found to be 24883.3. For the setting “puncta”, the “raw data 1” value came to 30921.9 and the “raw data 2” value is listed as 18844.8.
Consider `COc1ccc(-c2oc3c(CC=C(C)C)c(O)cc(O)c3c(=O)c2O)cc1` [Icaritin], for which the “Z repl 1” value stood at 0.42 and the “Z Repl 2” value is given as 0.629. Also, the “av Z” value under setting [3] is recorded as 0.525. Moreover, the av puncta (average of raw data 1 and 2) worked out at 25439.4. Moreover, where the note is “puncta”, the “raw data 1” value was 31392.8 and the “raw data 2” value is 19486.
Turning to `O=C(c1ccc(O)cc1)c1c(O)cc(O)c([C@@H]2O[C@H](CO)[C@@H](O)[C@H](O)[C@H]2O)c1O` [Iriflophenone 3-C-glucoside], the “Z repl 1” value is recorded as 0.626 and the “Z Repl 2” value is given as -0.232. Also, the “av Z” value under setting [3] worked out at 0.197. Under “average of raw data 1 and 2”, this compound returned an av puncta of 22078.3. Further, under “puncta”, the “raw data 1” value is listed as 33866.6 and the “raw data 2” value worked out at 10290.
For `COc1ccc(-c2coc3cc(O)c(OC)c(O)c3c2=O)cc1` [Irisolidone], the “Z repl 1” value was 0.554 and the “Z Repl 2” value came to 1.188. Moreover, under “average Z score of the two replicates, tau biosensor seeding, MCE Phenols Library screen”, the “av Z” value turned out to be 0.871. Where the note is “average of raw data 1 and 2”, this compound yielded an av puncta of 29224.4. Moreover, under “puncta”, the “raw data 1” value turned out to be 32994.7 and the “raw data 2” value is on record as 25454.1.
As for `COc1ccc(-c2coc3cc(O[C@@H]4O[C@H](CO)[C@@H](O)[C@H](O)[C@H]4O)c(OC)c(O)c3c2=O)cc1O` [Iristectorin A], the “Z repl 1” value turned out to be 0.106 and the “Z Repl 2” value is listed as 0.25. The “av Z” value under setting [3] is recorded as 0.178. The compound further displayed an av puncta (average of raw data 1 and 2) of 21528.7. Moreover, under “puncta”, the “raw data 1” value is recorded as 27620 and the “raw data 2” value is 15437.3.
In the case of `COc1cc(-c2coc3cc(O[C@@H]4O[C@H](CO)[C@@H](O)[C@H](O)[C@H]4O)c(OC)c(O)c3c2=O)ccc1O` [Iristectorin B], the “Z repl 1” value is given as -0.293 and the “Z Repl 2” value was -0.887. Further, the “av Z” value under setting [2] was -0.59. For the same compound, the av puncta under setting [1] amounted to 13061.4. Where the note is “puncta”, the “raw data 1” value stood at 22827.1 and the “raw data 2” value is 3295.67.
As for `O=C(/C=C/c1ccc(O)c(O)c1)O[C@@H]1C[C@](O)(C(=O)O)C[C@@H](OC(=O)/C=C/c2ccc(O)c(O)c2)[C@H]1O` [Isochlorogenic acid A], the “Z repl 1” value is given as -0.182 and the “Z Repl 2” value amounted to 0.275. The “av Z” value under setting [4] was 0.046. The av puncta (average of raw data 1 and 2) turned out to be 19930.3. Further, under “puncta”, the “raw data 1” value was found to be 24161.4 and the “raw data 2” value amounted to 15699.2.
